According to US7375124B2, “Use of α-phenylthiocarboxylic and α-phenyloxycarboxylic acids with serum-glucose-lowering and serum-lipid-lowering activity” (Sigma-Tau Industrie Farmaceutiche Riunite S.p.A., priority 2002, dated 2008):

Biological target: T1, mPPARαLBD/Gal4DBD (Mus musculus, UniProt P23204)
T1 construct: expressed in transfected cells; host or cells: COS-7 (monkey kidney fibroblasts)
T1 sequence (P23204 239-466 limits assumed): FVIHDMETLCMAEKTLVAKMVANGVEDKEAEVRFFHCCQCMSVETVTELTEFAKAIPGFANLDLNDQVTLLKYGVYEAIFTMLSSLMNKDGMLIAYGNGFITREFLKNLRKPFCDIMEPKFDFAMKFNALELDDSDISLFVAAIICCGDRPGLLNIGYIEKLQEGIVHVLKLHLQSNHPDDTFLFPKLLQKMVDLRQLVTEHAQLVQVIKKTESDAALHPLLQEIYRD
Test: Transactivation assay mediated by mPPARαLBD/Gal4DBD in COS-7 cells (CAT reporter)
Assay type: cell-based
Text: In this model a transactivation assay is used in which the expression vector mPPARαLBD/Gal4 DBD allows the synthesis by the transfected cell of a chimeric protein, in which the ligand binding domain (LBD) of PPARα is fused with the DNA binding domain (DBD) of the transcription factor GAL4 of yeast [Luckow B. et al., Nucleic Acids Res. 15, 5490 (1987)]. Simultaneously, a plasmid (pG5CAT) is transfected which contains 5 copies of the high-affinity binding site for GAL4 (also called UAS, upstream activating sequence), upstream of the viral promoter E1b fused with the CAT reporter gene [Moya-Camarena S. Y. et al., J. Lipid Res. 40 (8), 1426-33 (1999)]. This model eliminates interference by possible endogenous receptors.
This is due to the fact that the activation of E1b and the production of CAT will occur exclusively thanks to the interaction of GAL4 DBD with its own response element (UAS). Since the transcription factor GAL4 is not expressed in […] cells, transactivation of the reporter gene can take place only when, as a result of the interaction of a ligand with the LBD of PPARα, the chimeric protein PPARα/GAL4 recognises the UAS sequence on the plasmid pG5CAT. Together with the expression vector and the reporter vector the cells were also transfected with the plasmid pCH110 which provides the internal control for the efficiency of transfection and the normalisation of the results.
A monkey kidney fibroblast cell line (COS-7) was used [Elbrecht A. et al., J. Biol. Chem. 274 (12), 7913-22 (1999)]. The cells were co-transfected with the reporter vector, the expression plasmid coding for the fusion protein Gal4 DBD/PPARαLBD and the control vector pCH110. The cells were exposed to increasing concentrations of the study compounds and CAT activity was evaluated. Untreated cells were used as controls.
Monkey kidney fibroblasts (COS-7) were cultured according to the usual cell culture techniques, at 37° C. in a 5% v/v carbon dioxide atmosphere using as the growth medium DMEM (Dulbecco's modified Eagle's medium) modified with 3.7 g/l of sodium bicarbonate, 4 mM L-glutamine, 4.5 g/l of glucose, 1 mM sodium pyruvate and 10% v/v of foetal bovine serum, in the presence of streptomycin 100 μg/ml and penicillin 100 U/ml final.
The cells were co-transfected using the transfection reagent FuGENE6 (Roche), consisting of a defined mixture of lipids capable of complexing the DNA and of transporting it into the cells. Twenty-four hours prior to transfection the cells were plated at a density of 1.2×10^5 cells/well in 12-well plates and maintained at 37° C. in a 5% v/v CO2 atmosphere. […] Briefly, the transfection mixture containing 0.8 μg of the expression vector, 1.6 μg of the reporter vector, 0.8 μg of the control vector and 9 μl of the FuGENE6 reagent per well was added directly to the cells in the presence of culture medium devoid of serum. After 5 hours, the transfection medium was replaced by 1 ml of culture medium complete with serum and antibiotics in the presence or absence of the molecules to be tested at 3 different concentrations (2, 20 and 100 μM). Wy-14,643 (2 μM), a known ligand of PPARα, was used as the positive reference compound.
After 48 hours' incubation at 37° C. in a 5% v/v CO2 atmosphere, the cells were washed twice with 1 ml of phosphate buffer (PBS) and removed mechanically from the wells in TEN buffer (Tris[hydroxymethyl]aminomethane 10 mM pH 8, ethylenediamine-tetraacetic acid 1 mM pH 8, sodium chloride 0.1 M). After centrifuging for 3 minutes at 1000 rpm, the cells were resuspended in 65 μl of lysis buffer (Tris-HCl 0.25 M, pH 8) and then lysed thanks to three rapid freeze-thaw cycles. The insoluble cellular materials (debris) were removed by centrifuging at 15,000 rpm for 15 minutes at 4° C., and the supernatant was recovered and used for the CAT and β-galactosidase activity assays. […]

- Activation of reporter gene CAT as a percentage of the reference compound (WY-14,643 2 μM = 100%) (2 μM): 69.7%
- Activation of reporter gene CAT as a percentage of the reference compound (WY-14,643 2 μM = 100%) (20 μM): 103.6%
- Activation of reporter gene CAT as a percentage of the reference compound (WY-14,643 2 μM = 100%) (100 μM): 280.9%
SMILES: CC(C)(Sc1cccc(OCCc2ccc(Cl)cc2)c1)C(=O)O [Example 2, 2-[3-[2-(4-chlorophenyl)ethoxy]phenylthio]-2-methylpropanoic acid]
